In patent US7169770B2, “Method of enhancing reproductive performance in sows” (priority 2001, dated 2007):
Where two headings read alike, the source gives them in different places.

Tests used:
[1] = tested on: sows; settings: cited from earlier work
[2] = tested on: sows (PIC Line C22); assay: Sow feeding trial: L-carnitine and/or chromium tris-picolinate top dress over two parities, reproductive performance; format: in vivo; settings: for First service FR %: first service farrowing rate; for No. of sows Weaned parity 1: Second parity section; for first service farrowing rate: parity 2; for No. of sows Farrowed in parity 1 / No. of sows Farrowed in parity 2 / Number of sows removed from experiment: sow longevity table
Method: This experiment was conducted on a commercial 1,500 sow farrow-to-wean operation in central Kansas and used 599 sows (PIC Line C22). Experimental treatments were arranged in a 2×2 factorial with main effects of added L-carnitine (0 or 50 ppm) and chromium tris-picolinate (0 or 200 ppb). Sows were started on test on the first day of breeding. Each sow remained on the same treatment through gestation, lactation, and through a second gestation period (2 parities). During gestation, all sows were fed a grain sorghum-soybean meal-based diet formulated to contain 0.65% lysine, 0.83% Ca, and 0.76% P. In lactation, all sows were fed a grain sorghum-soybean meal based diet formulated to contain 1.10% lysine, 0.90% Ca, and 0.80% P (Table 3). Dietary treatments were provided via a corn-based top dress fed at 30 g/d. The top dress was formulated to provide 90 mg/d and 250 mg/d carnitine in gestation and lactation, respectively. Chromium tris-picolinate was provided at 360 mcg/d and 1,000 mcg/d during gestation and lactation, respectively. These inclusions were calculated to provide 50 mg/kg carnitine (CarniFeed, Lonza Inc., NJ) and 200 mcg/kg chromium (Chromapure, Lonza Inc., NJ) when sows were fed 4 lb/d of the gestation diet and 11 lb/d of the lactation diet. The top dress was added to the top of the feed box between meals in order to be consumed with the rest of the diet. The top dress was color-coded (1% dyed corncobs) by treatment to assure proper distribution of experimental treatments.
At farrowing, the number of pigs born alive, as stillborn, as mummies, and total born were recorded. Total born was the sum of the number of pigs born alive, stillborn, and mummies. Sows were rebred after weaning (15 d lactation) and remained on the same treatment until farrowing a second litter. […] Sows that were bred at the start of the study, but were later found open, were removed from the trial. Procedures and data collection were identical for the second gestation and lactation period. However, dietary treatments were not administered during the second lactation period.
Calculations were made to determine the total number of pigs born, born alive, as stillborns, or as mummies per sow for the two parities. Total number of pigs were calculated using only sows that initially farrowed, then completed the second parity, as well as calculated from all the sows that were actually started on test.
Data were analyzed using the MIXED procedure of SAS. Sow was the experimental unit for the analysis with parity, previous lactation length, and/or week of farrowing as a covariate (Table IV) for total born, number of pigs born alive, mummies, and stillborn. A chi-square statistic was calculated to determine differences among treatments when analyzing percent in estrus and farrowing rate.

[3] = tested on: sows; settings: 200 μg/kg of chromium fed to sows; Lindemann et al. (1995b); cited from earlier work
[4] = L-carnitine added to gestating sow diets, Musser et al. (1999b)
[5] = all sows started on test for two parities
[6] = sows that completed parity one, two parities
[7] = 200 μg/kg of chromium, Lindemann et al. (1995b), Hagen et al. (2000)

Molecule	% estrus by d 7 ([2]; First parity) [%]	% estrus by d 18 ([2]; First parity) [%]	No. of pigs Born alive ([2]; First parity)	No. of pigs Mummies ([2]; First parity)	No. of pigs Stiliborn ([2]; First parity)	No. of pigs Total born ([2]; First parity)	No. of sows Farrowed ([2]; First parity)	WEI d (wean to estrus interval) ([2]; First parity) [days]	First service FR % ([2]; First parity) [%]	% estrus by d 7 ([2]; Second parity) [%]	% estrus by d 18 ([2]; Second parity) [%]	No. of pigs Born alive ([2]; Second parity)	No. of pigs Mummies ([2]; Second parity)	No. of pigs Stiliborn ([2]; Second parity)	No. of pigs Total born ([2]; Second parity)	No. of sows Bred by d 18 ([2]; Second parity)	No. of sows Farrowed ([2]; Second parity)	Percentage of weaned parity 1 sows that farrowed parity 2 ([2]; Second parity) [%]	WEI (wean to estrus interval) ([2]; Second parity)	No. of sows Weaned parity 1 [2]	also measured
C[N+](C)(C)C[C@H](O)CC(=O)[O-] [Carnitine, L-carnitine]	88.6	91.5	9.8	0.26	0.98	11.4	140	4.6	91.9	76.9	80.8	9.9	0.33	1.02	11.2	128	104	73.9	4.7	140	farrowing rate, total number of pigs born or born alive ([1]; 50 mg/kg of carnitine during lactation, three experiments, Musser et al. (1999a)): minimal differences; farrowing rate [1, 4]: no effect; number of pigs born alive in the subsequent parity [1, 4]: increase; total number of pigs born and born alive ([1]; L-carnitine fed during gestation, Musser et al. (1999a)): increases; First service FR % ([2]; Second parity): 81.3%; Total pigs per sow, Born alive [2, 5]: 16.3; Total pigs per sow, Mummies [2, 5]: 0.5; Total pigs per sow, Stillborn [2, 5]: 1.6; Total pigs per sow, Total born [2, 5]: 18.4; first service farrowing rate ([2]; result in words): did not influence; No. of sows Farrowed in parity 1 [2]: 140; No. of sows Farrowed in parity 2 [2]: 104; Number of sows removed from experiment [2]: 46; Total pigs per sow, Born alive [2, 6]: 17.6; Total pigs per sow, Mummies [2, 6]: 0.5; Total pigs per sow, Stillborn [2, 6]: 1.7; Total pigs per sow, Total born [2, 6]: 19.8
chromium tris-picolinate	86.7	91.7	10.2	0.39	1.26	11.5	138	4.7	95.5	81.0	82.9	9.5	0.40	1.09	11.0	127	102	74.3	4.6	138	farrowing rate [1, 7]: no effects; number of pigs born alive [1, 7]: increases; plasma insulin and insulin to glucose ratio [3]: decreased; First service FR % ([2]; Second parity): 79.7%; Total pigs per sow, Born alive [2, 5]: 16.2; Total pigs per sow, Mummies [2, 5]: 0.7; Total pigs per sow, Stillborn [2, 5]: 2.0; Total pigs per sow, Total born [2, 5]: 18.8; farrowing rate ([2]; our study, result in words): increases; number born alive ([2]; our study, result in words): no improvements; number of stillborn pigs per litter ([2]; our study, result in words): tendencies to increase; first service farrowing rate ([2]; result in words): did not influence; No. of sows Farrowed in parity 1 [2]: 138; No. of sows Farrowed in parity 2 [2]: 102; Number of sows removed from experiment [2]: 45; Total pigs per sow, Born alive [2, 6]: 16.8; Total pigs per sow, Mummies [2, 6]: 0.6; Total pigs per sow, Stillborn [2, 6]: 2.1; Total pigs per sow, Total born [2, 6]: 19.5
